Experimental data taken from US8580825B2, “Oxadiazole inhibitors of leukotriene production” (Boehringer Ingelheim International GmbH, priority 2010, dated 2013).
pIC50: −log10 of the molar value.

Assays:
[1] = test system: synthesis of LTB4 in human whole blood; assay: human whole blood LTB4 production inhibition assay; format: cell-based; conditions: calcimycin stimulated, read-out: hWB LTB4 IC50
Outline: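 Heparinized human whole blood was preincubated with compound for 15 min at 37° C, then stimulated with calcimycin (20 μM final, in PBS pH 7.4) for a further 30 min at 37° C. Plasma LTB4 was quantified by antibody-based homogeneous time-resolved fluorescence.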

[2] = biological target: T1, recombinant human FLAP protein (Homo sapiens, UniProt P20292); assay: FLAP binding assay (Scintillation Proximity Assay, displacement of [125I]L-691,831); conditions: read-out: FLAP SPA IC50
T1 construct: made in house; host or cells: Sf9 insect cells (100,000xg membrane fraction used)
T1 sequence (P20292 1-161): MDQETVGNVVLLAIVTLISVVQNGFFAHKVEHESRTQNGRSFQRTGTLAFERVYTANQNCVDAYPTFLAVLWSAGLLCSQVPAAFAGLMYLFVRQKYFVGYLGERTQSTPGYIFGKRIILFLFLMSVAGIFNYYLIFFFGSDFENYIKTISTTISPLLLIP
Outline: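 Scintillation proximity displacement of [125I]L-691,831 (0.08 nM) from membranes of sf9 cells expressing recombinant human FLAP (5 μg/well) on WGA SPA beads, pH 7.5 Tris buffer. Plates shaken 2 h before counting. Non-specific binding defined with 10 μM unlabelled L-691,831.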

Compound	pIC50 [1]	pIC50 [2]
CN(C(=O)Cn1cc(-c2nc([C@@](C)(c3ccc(-c4cnc(N)nc4)nc3)C3CC3)no2)cn1)C(C)(C)C [Example 106, 2-[4-(3-{(R)-1-[6-(2-Amino-pyrimidin-5-yl)-pyridin-3-yl]-1-cyclopropyl-ethyl}-[1,2,4]oxadiazol-5-yl)-pyrazol-1-yl]-N-tert-butyl-N-methyl-acetamide]	7.52	8.00
CO[C@@H]1CCN(C(=O)Cn2cc(-c3nc([C@@](C)(c4ccc(-c5cnc(N)nc5)nc4)C4CC4)no3)cn2)C1 [Example 107, 2-[4-(3-{(R)-1-[6-(2-Amino-pyrimidin-5-yl)-pyridin-3-yl]-1-cyclopropyl-ethyl}-[1,2,4]oxadiazol-5-yl)-pyrazol-1-yl]-1-((R)-3-methoxy-pyrrolidin-1-yl)-ethanone]	6.66	7.14
COCCn1cc(-c2nc([C@](C)(c3ccc(-c4ccc(N)nc4)nc3)C3CC3)no2)cn1 [Example 108, 5-((S)-1-Cyclopropyl-1-{5-[1-(2-methoxy-ethyl)-1H-pyrazol-4-yl]-[1,2,4]oxadiazol-3-yl}-ethyl)-[2,3′]bipyridinyl-6′-ylamine]	5.64	6.44
CC(C)(O)Cn1cc(-c2nc([C@](C)(c3ccc(-c4ccc(N)nc4)nc3)C3CC3)no2)cn1 [Example 109, 1-(4-{3-[(S)-1-(6′-Amino-[2,3′]bipyridinyl-5-yl)-1-cyclopropyl-ethyl]-[1,2,4]oxadiazol-5-yl}-pyrazol-1-yl)-2-methyl-propan-2-ol]	5.96	6.46
CC(C)[C@](C)(c1ccc(-c2cnc(N)cn2)nc1)c1noc(-c2cnn(CC(C)(C)O)c2)n1 [Example 110, 1-[4-(3-{(R)-1-[6-(5-Amino-pyrazin-2-yl)-pyridin-3-yl]-1,2-dimethyl-propyl}-[1,2,4]oxadiazol-5-yl)-pyrazol-1-yl]-2-methyl-propan-2-ol]	7.51	8.23
CC(C)[C@](C)(c1ccc(-c2cnc(N)cn2)nc1)c1noc(-c2cnn(CC(=O)N(C)C)c2)n1 [Example 112, 2-[4-(3-{(R)-[6-(5-Amino-pyrazin-2-yl)-pyridin-3-yl]-1,2-dimethyl-propyl}-[1,2,4]oxadiazol-5-yl)-pyrazol-1-yl]-N,N-dimethyl-acetamide]	7.15	8.32
CC(C)[C@](C)(c1ccc(-c2cnc(N)cn2)nc1)c1noc(-c2cnn(C3COC3)c2)n1 [Example 113, 5-(5-{(R)-1,2-Dimethyl-1-[5-(1-oxetan-3-yl-1H-pyrazol-4-yl)-[1,2,4]oxadiazol-3-yl]-propyl}-pyridin-2-yl)-pyrazin-2-ylamine]	7.92	8.40
C[C@@](c1ccc(-c2ccc(N)nc2)nc1)(c1noc(-c2cnn(C(CO)CO)c2)n1)C1CC1 [Example 114, 2-(4-{3-[(R)-1-(6′-Amino-[2,3′]bipyridinyl-5-yl)-1-cyclopropyl-ethyl]-[1,2,4]oxadiazol-5-yl}-pyrazol-1-yl)-propane-1,3-diol]	6.07	7.28
C[C@@](c1ccc(-c2ccc(N)nc2)nc1)(c1noc(-c2cnn(C3COC3)c2)n1)C1CC1 [Example 115, 5-{(R)-1-Cyclopropyl-1-[5-(1-oxetan-3-yl-1H-pyrazol-4-yl)-[1,2,4]oxadiazol-3-yl]-ethyl}-[2,3′]bipyridinyl-6′-ylamine]	6.96	7.62
C[C@](c1ccc(-c2ccc(N)nc2)nc1)(c1noc(-c2cnn(C3COC3)c2)n1)C1CC1 [Example 116, 5-{(S)-1-Cyclopropyl-1-[5-(1-oxetan-3-yl-1H-pyrazol-4-yl)-[1,2,4]oxadiazol-3-yl]-ethyl}-[2,3′]bipyridinyl-6′-ylamine]	5.70	6.44
C[C@@](c1ccc(-c2cnc(N)nc2)nc1)(c1noc(-c2cn[nH]c2)n1)C1CC1 [Example 117, 5-(5-{(R)-1-Cyclopropyl-1-[5-(1H-pyrazol-4-yl)-[1,2,4]oxadiazol-3-yl]-ethyl}-pyridin-2-yl)-pyrimidin-2-ylamine]	7.07	8.06
Cn1cc(-c2nc(C(C)(c3ccc(-c4ccc(N)nc4)nc3)C3CC3)no2)cn1 (stereo not shown) [Example 118, 5-{1-Cyclopropyl-1-[5-(1-methyl-1H-pyrazol-4-yl)-[1,2,4]oxadiazol-3-yl]-ethyl}-[2,3′]bipyridinyl-6′-ylamine]	6.68	7.33
CC(C)[C@](C)(c1ccc(-c2cnc(N)[nH]c2=O)nc1)c1noc(-c2cnn(CC(C)(C)O)c2)n1 [Example 119, 2-Amino-5-[5-((R)-1-{5-[1-(2-hydroxy-2-methyl-propyl)-1H-pyrazol-4-yl]-[1,2,4]oxadiazol-3-yl}-1,2-dimethyl-propyl)-pyridin-2-yl]-3H-pyrimidin-4-one]	5.66	8.47
CN(C)CCn1cc(-c2nc(C(C)(c3ccc(-c4ccc(N)nc4)nc3)C3CC3)no2)cn1 (stereo not shown) [Example 120, 5-(1-Cyclopropyl-1-{5-[1-(2-dimethylamino-ethyl)-1H-pyrazol-4-yl]-[1,2,4]oxadiazol-3-yl}-ethyl)-[2,3′]bipyridinyl-6′-ylamine]	6.52	7.38
CO[C@H]1CCN(C(=O)Cn2cc(-c3nc([C@@](C)(c4ccc(-c5cnc(N)nc5)nc4)C4CC4)no3)cn2)C1 [Example 121, 2-[4-(3-{(R)-1-[6-(2-Amino-pyrimidin-5-yl)-pyridin-3-yl]-1-cyclopropyl-ethyl}-[1,2,4]oxadiazol-5-yl)-pyrazol-1-yl]-1-((S)-3-methoxy-pyrrolidin-1-yl)-ethanone]	6.66	7.17
CN(C)C(=O)Cn1cc(-c2nc([C@@](C)(c3ccc(-c4cnc(N)cn4)nc3)C3CC3)no2)cn1 [Example 122, 2-[4-(3-{(R)-1-[6-(5-Amino-pyrazin-2-yl)-pyridin-3-yl]-1-cyclopropyl-ethyl}-[1,2,4]oxadiazol-5-yl)-pyrazol-1-yl]-N,N-dimethyl-acetamide]	6.35	7.47
CN(C)C(=O)Cn1cc(-c2nc([C@](C)(c3ccc(-c4cnc(N)cn4)nc3)C3CC3)no2)cn1 [Example 123, 2-[4-(3-{(S)-1-[6-(5-Amino-pyrazin-2-yl)-pyridin-3-yl]-1-cyclopropyl-ethyl}-[1,2,4]oxadiazol-5-yl)-pyrazol-1-yl]-N,N-dimethyl-acetamide]	5.48	6.52
CN(C)CCn1cc(-c2nc([C@@](C)(c3ccc(-c4cnc(N)cn4)nc3)C3CC3)no2)cn1 [Example 124, 5-[5-((R)-1-Cyclopropyl-1-{5-[1-(2-dimethylamino-ethyl)-1H-pyrazol-4-yl]-[1,2,4]oxadiazol-3-yl}-ethyl)-pyridin-2-yl]-pyrazin-2-ylamine]	7.22	7.74
CN(C)CCn1cc(-c2nc([C@](C)(c3ccc(-c4cnc(N)cn4)nc3)C3CC3)no2)cn1 [Example 125, 5-[5-((S)-1-Cyclopropyl-1-{5-[1-(2-dimethylamino-ethyl)-1H-pyrazol-4-yl]-[1,2,4]oxadiazol-3-yl}-ethyl)-pyridin-2-yl]-pyrazin-2-ylamine]	6.43	6.92
COCCn1cc(-c2nc([C@@](C)(c3ccc(-c4cnc(N)cn4)nc3)C3CC3)no2)cn1 [Example 126, 5-[5-((R)-1-Cyclopropyl-1-{5-[1-(2-methoxy-ethyl)-1H-pyrazol-4-yl]-[1,2,4]oxadiazol-3-yl}-ethyl)-pyridin-2-yl]-pyrazin-2-ylamine]	7.60	8.06
